Test results as given in patent US8119696B2, “Treatment of superficial and cutaneous mycoses with a pure form of 1,7-bis(4-hydroxy-3-methoxyphenyl)-3,5-heptanedione” (priority 2007, dated 2012).
Entries after “also recorded” stand apart in the source; their conditions may differ.

Experiments:
Assay type in all cases: cell-based
[1] = test system: Epidermophyton floccosum; assay: Anti-dermatophytic activity, agar dilution method (Sabouraud's dextrose agar); settings: for Growth of test organism (Negative/Growth): DMSO solvent, SDA, trials EF1-EF3; for Inhibition of growth at all tested concentrations: concentrations 0.15%, 0.31%, 0.625%, 1.25%, 2.50% and 5.0%
Experimental: (§1) The anti-dermatophyte efficacy testing for greater than 99% pure form of 1,7-Bis(4-hydroxy-3-methoxyphenyl)-3,5-heptanedione (coded TP) in comparison to the corresponding 95% pure form (coded SW) was done by the agar dilution method. The medium used was Sabouraud's dextrose agar (SDA). Doubling concentration ranges from about 0.15% to about 5% of TP and […] was prepared in 5 ml Dimethylsulfoxide and added to 95 ml of SDA to form a total volume of 100 ml of the medium. The test organisms Trichophyton rubrum, Microsporum gypseum and Epidermophyton floccosum encoded as TR, MG and EF were inoculated in biosafety level 2 standards into the media comprising test compounds in the specified concentration ranges. Triplicate experiments were set up for each of the three fungi for each concentration of the test compounds to ensure reproducibility of results. DMSO and SDA controls were also included in triplicates for the test.
(§2) The test results are represented as Table I (FIG. 1, FIG. 2 and FIG. 3). The table may be read as follows. For example, TPTR1 represents growth of Trichophyton rubrum in greater than 99% pure form of 1,7-Bis (4-hydroxy-3-methoxyphenyl)-3,5-heptanedione in the first test. Similarly duplicate and triplicate testing are represented as TPTR2 and TPTR3.

[2] = test system: Microsporum gypseum; assay: as above; settings: for Growth of test organism (Negative/Growth): DMSO solvent, SDA, trials MG1-MG3; for Inhibition of growth at all tested concentrations: concentrations 0.15%, 0.31%, 0.625%, 1.25%, 2.50% and 5.0%
Experimental: as §1, §2

[3] = test system: Trichophyton rubrum; assay: as above; settings: for Growth of test organism (Negative/Growth): DMSO solvent, SDA, trials TR1-TR3; for Inhibition of growth at all tested concentrations: concentrations 0.15%, 0.31%, 0.625%, 1.25%, 2.50% and 5.0%
Experimental: as §1, §2

[4] = test system: Malassezia furfur; assay: Antifungal efficacy, agar dilution method (Sabourauds Dextrose Agar with an overlay of coconut oil); settings: for Growth of test organism (Negative/Growth): DMSO solvent, trials MF1-MF3
[5] = test system: Candida albicans NCIM 3471 (yeast); assay: Activity against Candida species: colony counts over 28 days
[6] = test system: Fusarium oxysporum (mycotoxin producing fungus); assay: Activity against Fusarium oxysporum: counts over 28 days; settings: inoculation level 1 × 10^7 CFU/g
[7] = final concentration 0.15%, listed as 95% pure form of 1,7-Bis(4-hydroxy-3-methoxyphenyl)-3,5-heptanedione
[8] = test interval 7 days, listed as 1,7-bis(4-hydroxy-3-methoxyphenyl)-3,5-heptanedione (about 95% purity)
[9] = test interval 14 days, listed as 1,7-bis(4-hydroxy-3-methoxyphenyl)-3,5-heptanedione (about 95% purity)
[10] = test interval 21 days, listed as 1,7-bis(4-hydroxy-3-methoxyphenyl)-3,5-heptanedione (about 95% purity)
[11] = test interval 28 days, listed as 1,7-bis(4-hydroxy-3-methoxyphenyl)-3,5-heptanedione (about 95% purity)
[12] = listed as greater than 99% pure form of 1,7-Bis(4-hydroxy-3-methoxyphenyl)-3,5-heptanedion
[13] = test interval 7 days, listed as 1,7-bis(4-hydroxy-3-methoxyphenyl)-3,5-heptanedione (>99% purity)
[14] = test interval 14 days, listed as 1,7-bis(4-hydroxy-3-methoxyphenyl)-3,5-heptanedione (>99% purity)
[15] = test interval 21 days, listed as 1,7-bis(4-hydroxy-3-methoxyphenyl)-3,5-heptanedione (>99% purity)
[16] = test interval 28 days, listed as 1,7-bis(4-hydroxy-3-methoxyphenyl)-3,5-heptanedione (>99% purity)
[17] = test interval 28 days, listed as greater than 99% pure form of 1,7-bis(4-hydroxy-3-methoxyphenyl)-3,5-heptanedion

## COc1cc(CCC(=O)CC(=O)CCc2ccc(O)c(OC)c2)ccc1O [SW, 1,7-Bis(4-hydroxy-3-methoxyphenyl)-3,5-heptanedione]
[1]; final concentration 0.15%
  Growth of test organism (Negative/Growth): able to grow; also recorded: Growth
[1]; [7]
  Growth of test organism (Negative/Growth): grow
[1]; final concentration 0.31%
  Growth of test organism (Negative/Growth): able to grow; also recorded: Growth
[1]; final concentration 0.31%, listed as 95% pure form of 1,7-Bis(4-hydroxy-3-methoxyphenyl)-3,5-heptanedione
  Growth of test organism (Negative/Growth): tolerant
[1]; final concentration 0.625%
  Growth of test organism (Negative/Growth): Negative
[1]; final concentration 1.25%
  Growth of test organism (Negative/Growth): Negative
[1]; final concentration 2.5%
  Growth of test organism (Negative/Growth): Negative
[1]; final concentration 5%
  Growth of test organism (Negative/Growth): Negative
[2]; final concentration 0.15%
  Growth of test organism (Negative/Growth): tolerated by the fungi; also recorded: Growth
[2]; [7]
  Growth of test organism (Negative/Growth): grow
[2]; final concentration 0.31%
  Growth of test organism (Negative/Growth): Negative
[2]; final concentration 0.625%
  Growth of test organism (Negative/Growth): Negative
[2]; final concentration 1.25%
  Growth of test organism (Negative/Growth): Negative
[2]; final concentration 2.5%
  Growth of test organism (Negative/Growth): Negative
[2]; final concentration 5%
  Growth of test organism (Negative/Growth): Negative
[3]; final concentration 0.15%
  Growth of test organism (Negative/Growth): tolerated by the fungi; also recorded: Growth
[3]; [7]
  Growth of test organism (Negative/Growth): grow
[3]; final concentration 0.31%
  Growth of test organism (Negative/Growth): Negative
[3]; final concentration 0.625%
  Growth of test organism (Negative/Growth): Negative
[3]; final concentration 1.25%
  Growth of test organism (Negative/Growth): Negative
[3]; final concentration 2.5%
  Growth of test organism (Negative/Growth): Negative
[3]; final concentration 5%
  Growth of test organism (Negative/Growth): Negative
[4]; agar dilution
  Concentration that inhibits the growth of the fungus: ≥ 1.25%
[4]; final concentration 0.15%
  Growth of test organism (Negative/Growth): Growth
[4]; final concentration 0.31%
  Growth of test organism (Negative/Growth): Growth
[4]; final concentration 0.625%
  Growth of test organism (Negative/Growth): Growth
[4]; final concentration 1.25%
  Growth of test organism (Negative/Growth): Negative; also recorded: Growth
[4]; final concentration 2.5%
  Growth of test organism (Negative/Growth): Negative
[4]; final concentration 5%
  Growth of test organism (Negative/Growth): Negative
[5]; test interval 0 days, listed as 1,7-bis(4-hydroxy-3-methoxyphenyl)-3,5-heptanedione (about 95% purity)
  Concentration of organism: 25 × 10^5 cfu/ml
[5]; [8]
  Concentration of organism: 19.7 × 10^5 cfu/ml
  Log Reduction: 0.2
  Percent Reduction: 21.2%
[5]; [9]
  Concentration of organism: 16 × 10^4 cfu/ml
  Log Reduction: 2.3
  Percent Reduction: 99.3%
[5]; [10]
  Concentration of organism: 53 × 10^5 cfu/ml
  Log Reduction: 0.7
  Percent Reduction: 78.6%
[5]; [11]
  Concentration of organism: 31.5 × 10^5 cfu/ml
  Log Reduction: 0.8
  Percent Reduction: 87.4%

## COc1cc(CCC(=O)CC(=O)CCc2ccc(O)c(OC)c2)ccc1O [TP, 1,7-Bis(4-hydroxy-3-methoxyphenyl)-3,5-heptanedione]
[1]
  Inhibition of growth at all tested concentrations: inhibits the growth
[1]; [12]
  Inhibition of growth at all tested concentrations: completely inhibiting the growth
[1]; final concentration 0.15%
  Growth of test organism (Negative/Growth): Negative
[1]; final concentration 0.31%
  Growth of test organism (Negative/Growth): Negative
[1]; final concentration 0.625%
  Growth of test organism (Negative/Growth): Negative
[1]; final concentration 1.25%
  Growth of test organism (Negative/Growth): Negative
[1]; final concentration 2.5%
  Growth of test organism (Negative/Growth): Negative
[1]; final concentration 5%
  Growth of test organism (Negative/Growth): Negative
[2]
  Inhibition of growth at all tested concentrations: inhibits the growth
[2]; [12]
  Inhibition of growth at all tested concentrations: completely inhibiting the growth
[2]; final concentration 0.15%
  Growth of test organism (Negative/Growth): Negative
[2]; final concentration 0.31%
  Growth of test organism (Negative/Growth): Negative
[2]; final concentration 0.625%
  Growth of test organism (Negative/Growth): Negative
[2]; final concentration 1.25%
  Growth of test organism (Negative/Growth): Negative
[2]; final concentration 2.5%
  Growth of test organism (Negative/Growth): Negative
[2]; final concentration 5%
  Growth of test organism (Negative/Growth): Negative
[3]
  Inhibition of growth at all tested concentrations: inhibits the growth
[3]; [12]
  Inhibition of growth at all tested concentrations: completely inhibiting the growth
[3]; final concentration 0.15%
  Growth of test organism (Negative/Growth): Negative
[3]; final concentration 0.31%
  Growth of test organism (Negative/Growth): Negative
[3]; final concentration 0.625%
  Growth of test organism (Negative/Growth): Negative
[3]; final concentration 1.25%
  Growth of test organism (Negative/Growth): Negative
[3]; final concentration 2.5%
  Growth of test organism (Negative/Growth): Negative
[3]; final concentration 5%
  Growth of test organism (Negative/Growth): Negative
[4]; 0.15% to 5%
  Activity against Malassezia furfur at all tested concentration, in contrast to the 95% pure form: enhanced activity
[4]; final concentration 0.15%
  Growth of test organism (Negative/Growth): Negative
[4]; final concentration 0.31%
  Growth of test organism (Negative/Growth): Negative
[4]; final concentration 0.625%
  Growth of test organism (Negative/Growth): Negative
[4]; final concentration 1.25%
  Growth of test organism (Negative/Growth): Negative
[4]; final concentration 2.5%
  Growth of test organism (Negative/Growth): Negative
[4]; final concentration 5%
  Growth of test organism (Negative/Growth): Negative
[5]; test interval 0 days, listed as 1,7-bis(4-hydroxy-3-methoxyphenyl)-3,5-heptanedione (>99% purity)
  Concentration of organism: 14.6 × 10^5 cfu/ml
[5]; [13]
  Concentration of organism: 72 × 10^5 cfu/ml
  Log Reduction: 0.5
  Percent Reduction: 50.6%
[5]; [14]
  Concentration of organism: 20 × 10^8 cfu/ml
  Log Reduction: 2.8
  Percent Reduction: 99.8%
[5]; [15]
  Concentration of organism: 75 × 10^2 cfu/ml
  Log Reduction: 3.4
  Percent Reduction: 99.94%
[5]; [16]
  Concentration of organism: <130 cfu/ml
  Log Reduction: 5.3
  Percent Reduction: 99.99%
[5]; [17]
  Concentration of organism: less than 100 cfu/ml
  Percent Reduction: 99.99%
[6]
  Day 0 count: 1 × 10^7 CFU/g
  Day 7 count: <10 CFU/g
  Day 14 count: <10 CFU/g
  Day 28 Count: <10 CFU/g
